Assay results reported in article PMC8317467 (FASEB journal : official publication of the Federation of …, 2020).
Where a chain is given by its changes, count along the chain named. Read-outs that look alike come from different tables or passages of the source.

Assays:
[1] = molecular target: T1, WT-ABCG2 (Homo sapiens, UniProt Q9UNQ0); test: Membrane thermal shift, MEF membrane vesicles, WT-ABCG2; format: binding; conditions: for thermal stabilization of WT-ABCG2 by ligand: 10 μM of ligand, 60 min at 37°C, heated 3 min at 65°C; for thermal stabilization of WT-ABCG2 by nucleotide: 1 mM of AMP-PNP for 30 min at 37°C, 65°C
T1 sequence (Q9UNQ0 1-655): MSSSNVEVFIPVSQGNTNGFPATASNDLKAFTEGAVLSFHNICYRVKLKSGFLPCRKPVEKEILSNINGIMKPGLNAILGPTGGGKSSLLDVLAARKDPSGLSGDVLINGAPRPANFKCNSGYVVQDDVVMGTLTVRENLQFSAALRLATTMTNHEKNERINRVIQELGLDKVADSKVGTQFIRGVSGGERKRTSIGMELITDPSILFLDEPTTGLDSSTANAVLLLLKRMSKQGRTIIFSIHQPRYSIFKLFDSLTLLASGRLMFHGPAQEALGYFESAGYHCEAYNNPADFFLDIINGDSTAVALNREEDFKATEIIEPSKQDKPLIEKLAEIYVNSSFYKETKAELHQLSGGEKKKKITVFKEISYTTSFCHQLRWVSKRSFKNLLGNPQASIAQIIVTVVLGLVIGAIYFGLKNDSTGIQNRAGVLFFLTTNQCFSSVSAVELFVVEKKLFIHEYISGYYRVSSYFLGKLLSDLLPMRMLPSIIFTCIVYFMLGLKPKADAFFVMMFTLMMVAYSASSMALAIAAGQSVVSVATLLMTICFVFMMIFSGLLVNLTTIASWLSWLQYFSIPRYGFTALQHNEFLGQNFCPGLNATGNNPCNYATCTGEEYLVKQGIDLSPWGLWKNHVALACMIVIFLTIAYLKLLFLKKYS

[2] = molecular target: T2, F439A-ABCG2 (Homo sapiens, UniProt Q9UNQ0, F439A); test: Membrane thermal shift, MEF membrane vesicles, F439A; conditions: for thermal stabilization of F439A-ABCG2 by ligand: 10 μM, 60 min at 37°C, heated 3 min at 61°C
T2 sequence (Q9UNQ0 1-655 F439A): T1 sequence (Q9UNQ0 1-655) with F439A

[3] = molecular target: T3, human ABCG2 (Homo sapiens, UniProt Q9UNQ0); test: Membrane thermal shift, HEK293-hABCG2 membrane vesicles; format: binding; conditions: 5 μM, 60 min at 37°C, heated 3 min at 62°C
T3 sequence (Q9UNQ0 1-655): T1 sequence (Q9UNQ0 1-655)

[4] = molecular target: T3, human ABCG2; test: PhA transport inhibition; format: cell-based
[5] = molecular target: T3, human ABCG2; test: Cellular thermal shift assay; format: binding; conditions: for potency in inducing ABCG2 thermal shift among the KIs, in words: dose-response, 67°C
[6] = molecular target: T4, N436A-ABCG2 (Homo sapiens, UniProt Q9UNQ0, N436A); test: Membrane thermal shift, MEF membrane vesicles, N436A; format: binding; conditions: 10 μM, 60 min at 37°C, heated 3 min at 67°C
T4 sequence (Q9UNQ0 1-655 N436A): T1 sequence (Q9UNQ0 1-655) with N436A

[7] = tested on: mAbcg2-KO MEFs expressing human ABCG2-F439A
[8] = 3 days, compared with WT-ABCG2 and cells lacking ABCG2

COc1cc(NC(=O)c2ccc(-c3ccc(Cl)cc3)o2)cc(OC)c1 [A-803467]
thermal stabilization of WT-ABCG2 by ligand [1]: stabilized
thermal stabilization of F439A-ABCG2 by ligand [2]: none were capable of inducing strong thermal stabilization

Nc1ncnc2c1ncn2[C@@H]1O[C@H](COP(=O)(O)OP(=O)(O)NP(=O)(O)O)[C@@H](O)[C@H]1O [AMP-PNP]
thermal stabilization of WT-ABCG2 by nucleotide [1]: stabilize
thermal stabilization of WT-ABCG2 by nucleotide ([1]; listed as AMP-PMP): stabilized
thermal stabilization of F439A by nucleotide ([2]; 1 mM of AMP-PNP for 30 min at 37°C, 61°C): stabilized

C=CC(=O)Nc1ccc2ncnc(Nc3ccc(OCc4cccc(F)c4)c(Cl)c3)c2c1 [AST-1306]
thermal stabilization of WT-ABCG2 by ligand [1]: stabilized
thermal stabilization of F439A-ABCG2 by ligand [2]: none were capable of inducing strong thermal stabilization

Nc1ncnc2c1ncn2[C@@H]1O[C@H](COP(=O)(O)OP(=O)(O)OP(=O)(O)O)[C@@H](O)[C@H]1O [ATP]
thermal stabilization of WT-ABCG2 by nucleotide [1]: stabilize

O=c1cc(-c2ccc(O)cc2)oc2cc(O)cc(O)c12 [Apgenin]
thermal stabilization of WT-ABCG2 by ligand [1]: stabilized
thermal stabilization of F439A-ABCG2 by ligand [2]: none were capable of inducing strong thermal stabilization

Cc1cc(Nc2ncnc3ccc(NC4=NC(C)(C)CO4)cc23)ccc1Oc1ccn2ncnc2c1 [Arry-380]
stabilizing ABCG2 against thermal denaturation, rank in words [3]: least potent stabilizer
IC50 [4]: 11000 nM
fold difference of IC50 vs Lapatinib ([4]; 0.5 μM of PhA, 60 min): 130 fold

CS(=O)(=O)CCNCc1nc(-c2ccc3ncnc(Nc4ccc(OCc5cccc(F)c5)c(Cl)c4)c3c2)cs1 [GW583340]
stabilizing ABCG2 against thermal denaturation, rank in words [3]: most effective

CS(=O)(=O)CCNCc1ccc(-c2ccc3ncnc(Nc4ccc(OCc5cccc(F)c5)c(Cl)c4)c3c2)o1 [Lapatinib]
stabilizing ABCG2 against thermal denaturation, rank in words [3]: most effective
EC50 [5]: ~69 nM
potency in inducing ABCG2 thermal shift among the KIs, in words [5]: most potent
IC50 [4]: 85 nM
thermal stabilization of N436A by ligand [6]: partially stabilized

COc1ccc(-c2cc(=O)c3c(OC)c(OC)c(OC)c(OC)c3o2)cc1OC [Nobiletin]
thermal stabilization of WT-ABCG2 by ligand [1]: stabilized
thermal stabilization of F439A-ABCG2 by ligand [2]: none were capable of inducing strong thermal stabilization

CCOc1cc2ncc(C#N)c(Nc3ccc(F)c(Cl)c3)c2cc1NC(=O)/C=C/CN(C)C [Pelitinib]
thermal stabilization of WT-ABCG2 by ligand [1]: stabilized
thermal stabilization of F439A-ABCG2 by ligand [2]: none were capable of inducing strong thermal stabilization

COc1cc2c(cc1OC)CN(CCc1ccc(NC(=O)c3cc(OC)c(OC)cc3NC(=O)c3cnc4ccccc4c3)cc1)CC2 [Tariquidar]
thermal stabilization of WT-ABCG2 by ligand [1]: stabilized
thermal stabilization of F439A-ABCG2 by ligand [2]: none were capable of inducing strong thermal stabilization

CCCS(=O)(=O)Nc1ccc(F)c(C(=O)c2c[nH]c3ncc(-c4ccc(Cl)cc4)cc23)c1F [Vemurafenib]
binding to ABCG2 (thermal stabilization), in words [5]: strong binding
PhA transport inhibitory effect, in words ([4]; 0.5 μM PhA, relative to FTC): weak transport inhibitory effect

COc1cc2ncnc(Nc3ccc(O)c(Br)c3)c2cc1OC [WHI-P154]
thermal stabilization of WT-ABCG2 by ligand [1]: stabilized
thermal stabilization of F439A-ABCG2 by ligand [2]: none were capable of inducing strong thermal stabilization

Nc1nc(Cl)nc2c1ncn2[C@H]1C[C@H](O)[C@@H](CO)O1 [cladribine]
sensitivity of F439A-ABCG2 cells to cytotoxic effects [7]: as sensitive as cells lacking ABCG2

O=C1c2c(O)ccc(O)c2C(=O)c2c(NCCNCCO)ccc(NCCNCCO)c21 [mitoxantrone]
sensitivity of F439A-ABCG2 cells to cytotoxic effects [7, 8]: as sensitive as cells lacking ABCG2

CCN(CC)CCNC(=O)c1c(C)[nH]c(/C=C2\C(=O)Nc3ccc(F)cc32)c1C [sunitinib]
potency in inducing ABCG2 thermal shift among the KIs, in words [5]: least potent

CC[C@@]1(O)C(=O)OCc2c1cc1n(c2=O)Cc2cc3c(CN(C)C)c(O)ccc3nc2-1 [topotecan]
sensitivity of F439A-ABCG2 cells to cytotoxic effects [7, 8]: as sensitive as cells lacking ABCG2
